Test results: patent US8889370B2, “Method of determining inhibitors of coagulation” (Siemens Healthcare Diagnostics Products GmbH, priority 2010, dated 2014)
Like-named read-outs stand apart in the source and are kept apart here.

Molecular target: T1, bovine thrombin (Bos taurus, UniProt P00735)
T1 construct: a lyophilized thrombin reagent consisting of bovine thrombin; purchased Siemens Healthcare Diagnostics (hirudin activity assay, thrombin reagent)
Test: Determination of the thrombin binding constant (Ki) of peptide aldehyde ligands, chromogenic assay with hirudin activity assay reagents, Dixon plot
Assay type: biochemical
Method: The kinetic data of the peptide aldehyde ligands were determined in chromogenic assay formats by measuring the rate of hydrolysis of chromogenic peptide substrates which compete with the peptide aldehyde ligands for binding to the active site of the particular enzyme, at various substrate concentrations and peptide aldehyde-ligand concentrations. The binding constant (Ki) was determined by a known method (Dixon, M., 1953, Biochem J, 55, 170-171).
The thrombin binding constant was determined using the reagents of the hirudin activity assay from Siemens Healthcare Diagnostics. The hirudin activity assay comprises a lyophilized thrombin reagent consisting of bovine thrombin, a heparin inhibitor and aprotinin, a lyophilized chromogenic substrate reagent with a concentration of 4 mmol/l tos-Gly-Pro-Arg-ANBA-IPA (tosylglycyl-L-propyl-arginyl-5-amino-2-nitrobenzoyliso-propylamide) after reconstitution. The thrombin reagent was reconstituted in buffer solution (trishydroxymethylamino-methane, NaCl, pH 8.2). Dilutions of the substrate reagent were prepared with deionized water. The peptide aldehyde ligands prepared according to example 1 were dissolved in water and used as sample. The B-r-G-R—H ligand was used in a concentration range from 26.1 to 0.815 μM. The B-f-P—R—H ligand was used in a concentration range from 26.1 to 0 μM. The assays were carried out automatically in a BCS® XP coagulation analyzer (Siemens Healthcare Diagnostics, Marburg, Germany).
A reaction mix was mixed together as follows:
30 μl of sample (peptide aldehyde ligand B-r-G-R—H or B-f-P—R—H),
150 μl of thrombin reagent,
50 μl of chromogenic substrate reagent (tos-Gly-Pro-Arg-ABNA-IPA).
The reaction rate in mE/min was determined on the basis of the increase in optical density of the reaction mix at a wavelength of 405 nm. For this, the optical density of the reaction mixes was determined in time intervals of from 15 to 40 seconds for the B-f-P—R—H peptide aldehyde ligand or 5-16 seconds for the B-r-G-R—H peptide aldehyde ligand.
Reversibly and irreversibly binding ligands can be distinguished by their reaction kinetics. Plotting 1/v, where v is the reaction rate, as a function of the ligand concentration (i) at a constant concentration (S) of a cleavable substrate produces a line. When using two or more different substrate concentrations (S1, S2 . . . SN), said lines intersect at a single point. The x axis value of this point corresponds to −Ki, with Ki corresponding to the binding constant, see, for example, Klebe, G., Wirkstoffdesign, 2nd edition, Spektrum Akademischer Verlag, Heidelberg, Germany, 2009, pages 52-62 and Dixon, M., 1953, Biochem J, 55, 170-171. With an irreversible inhibition, the curves meet at a single point on the x axis, which again corresponds to −Ki.

## N=C(N)NCCC[C@@H](C=O)NC(=O)CNC(=O)[C@@H](CCCNC(=N)N)NC(=O)CCC(=O)NCCCOCCOCCOCCCNC(=O)CCCC[C@@H]1SC[C@@H]2NC(=O)N[C@@H]21 [B-r-G-R-H, biotinyl-Ttds-D-Arg-Gly-Arg-H]
CB-r-G-R-H 0.81522 μM, Csubstrate = 0.5 mM
  1/Reaction rate: 0.516 min/E
CB-r-G-R-H 0.81522 μM, Csubstrate = 2 mM
  1/Reaction rate: 0.3884 min/E
CB-r-G-R-H 0.81522 μM, Csubstrate = 4 mM
  1/Reaction rate: 0.3756 min/E
CB-r-G-R-H 1.30435 μM, Csubstrate = 0.5 mM
  1/Reaction rate: 0.5211 min/E
CB-r-G-R-H 1.30435 μM, Csubstrate = 2 mM
  1/Reaction rate: 0.3902 min/E
CB-r-G-R-H 1.30435 μM, Csubstrate = 4 mM
  1/Reaction rate: 0.3758 min/E
CB-r-G-R-H 1.63043 μM, Csubstrate = 0.5 mM
  1/Reaction rate: 0.5224 min/E
CB-r-G-R-H 1.63043 μM, Csubstrate = 2 mM
  1/Reaction rate: 0.3894 min/E
CB-r-G-R-H 1.63043 μM, Csubstrate = 4 mM
  1/Reaction rate: 0.3748 min/E
CB-r-G-R-H 2.60870 μM, Csubstrate = 0.5 mM
  1/Reaction rate: 0.5283 min/E
CB-r-G-R-H 2.60870 μM, Csubstrate = 2 mM
  1/Reaction rate: 0.3876 min/E
CB-r-G-R-H 2.60870 μM, Csubstrate = 4 mM
  1/Reaction rate: 0.373 min/E
CB-r-G-R-H 3.26087 μM, Csubstrate = 0.5 mM
  1/Reaction rate: 0.5385 min/E
CB-r-G-R-H 3.26087 μM, Csubstrate = 2 mM
  1/Reaction rate: 0.3968 min/E
CB-r-G-R-H 3.26087 μM, Csubstrate = 4 mM
  1/Reaction rate: 0.3807 min/E
CB-r-G-R-H 5.21739 μM, Csubstrate = 0.5 mM
  1/Reaction rate: 0.5408 min/E
CB-r-G-R-H 5.21739 μM, Csubstrate = 2 mM
  1/Reaction rate: 0.3946 min/E
CB-r-G-R-H 5.21739 μM, Csubstrate = 4 mM
  1/Reaction rate: 0.3761 min/E
CB-r-G-R-H 6.52174 μM, Csubstrate = 0.5 mM
  1/Reaction rate: 0.5637 min/E
CB-r-G-R-H 6.52174 μM, Csubstrate = 2 mM
  1/Reaction rate: 0.4008 min/E
CB-r-G-R-H 6.52174 μM, Csubstrate = 4 mM
  1/Reaction rate: 0.3841 min/E
CB-r-G-R-H 9.78261 μM, Csubstrate = 0.5 mM
  1/Reaction rate: 0.5802 min/E
CB-r-G-R-H 9.78261 μM, Csubstrate = 2 mM
  1/Reaction rate: 0.4106 min/E
CB-r-G-R-H 9.78261 μM, Csubstrate = 4 mM
  1/Reaction rate: 0.3805 min/E
CB-r-G-R-H 13.04348 μM, Csubstrate = 0.5 mM
  1/Reaction rate: 0.609 min/E
CB-r-G-R-H 13.04348 μM, Csubstrate = 2 mM
  1/Reaction rate: 0.4032 min/E
CB-r-G-R-H 13.04348 μM, Csubstrate = 4 mM
  1/Reaction rate: 0.3885 min/E
CB-r-G-R-H 16.30435 μM, Csubstrate = 0.5 mM
  1/Reaction rate: 0.6264 min/E
CB-r-G-R-H 16.30435 μM, Csubstrate = 2 mM
  1/Reaction rate: 0.414 min/E
CB-r-G-R-H 16.30435 μM, Csubstrate = 4 mM
  1/Reaction rate: 0.3865 min/E
CB-r-G-R-H 26.08696 μM, Csubstrate = 0.5 mM
  1/Reaction rate: 0.6903 min/E
CB-r-G-R-H 26.08696 μM, Csubstrate = 2 mM
  1/Reaction rate: 0.4285 min/E
CB-r-G-R-H 26.08696 μM, Csubstrate = 4 mM
  1/Reaction rate: 0.395 min/E
Csubstrate 0.5 mM
  Intersect of regression curve 1/reaction rate vs ligand concentration: 0.5122 min/E
  Slope of regression curve 1/reaction rate vs ligand concentration: 0.006964 min/E μM
Csubstrate 2 mM
  Intersect of regression curve 1/reaction rate vs ligand concentration: 0.3880 min/E
  Slope of regression curve 1/reaction rate vs ligand concentration: 0.001572 min/E μM
Csubstrate 4 mM
  Intersect of regression curve 1/reaction rate vs ligand concentration: 0.3746 min/E
  Slope of regression curve 1/reaction rate vs ligand concentration: 0.000805 min/E μM
Average of three Ki values, read-out: KiM average thrombin binding constant
  Ki: 20.9 µM
Intersection of regression curves Csubstrate 2 and 0.5 mM, read-out: Ki2&3 thrombin binding constant
  Ki: 23 µM
Intersection of regression curves Csubstrate 4 and 0.5 mM, read-out: Ki1&3 thrombin binding constant
  Ki: 22.3 µM
Intersection of regression curves Csubstrate 4 and 2 mM, read-out: Ki1&2 thrombin binding constant
  Ki: 17.4 µM
Intersections of regression curves not on the x axis
  binding of the peptide aldehyde with thrombin (reversible or irreversible): reversible
